Test results: PMC5478727, “A Novel Small Molecule GDNF Receptor RET Agonist, BT13, Promotes Neurite Growth from Sensory Neurons in Vitro and Attenuates Experimental Neuropathy in the Rat” (Frontiers in Pharmacology, 2017)

Assays:
[1] = target: T1, hERG (human Ether-à-go-go-related gene) (Homo sapiens, UniProt Q12809); assay: hERG competition assay with [3H]-astemizole; type: binding; conditions: competition with [3H]-astemizole; membranes of HEK293 cells; read-out: hERG inhibition (Ki)
T1 construct: host or cells: HEK293

[2] = target: T2, monoamine oxidase A (MAO-A) (Rattus norvegicus, UniProt P21396); assay: CEREP MAO-A (antagonist radioligand); type: binding; conditions: BT13 1 μM; Cat. No. 0443; average of duplicate; read-out: Percentage of inhibition/potentiation from control
T2 construct: purchased CEREP (contract assay) 0443

dopamine transporter = dopamine transporter (Homo sapiens, UniProt Q01959); assay: biochemical; conditions: read-out: Percentage of inhibition/potentiation from control
RET = target: T3, RET (Homo sapiens, UniProt P07949); assay: RET phosphorylation assay in MG87RET fibroblasts (GFRα3/RET and GFP/RET); type: cell-based, murine; conditions: 25–50 μM; in the presence and absence of GFRα3 co-receptor
T3 construct: full-length human RET (long isoform) in pCR3.1; expressed in transfected cells; host or cells: MG87RET murine fibroblasts

TrkA = TrkA phosphorylation assay in MG87TrkA cells; type: cell-based; conditions: BT13 10–100 μM, NGF positive control
Experimental: MG87RET, MG87TrkA, or MG87TrkB were plated on 35 mm tissue culture dishes 1–2 days before the experiment to achieve 90–95% of confluency of the cells at the day of stimulation with tested substances. If necessary, cells were transfected with 4 μg/well of GFRα1-, GFRα3-, or green fluorescent protein (GFP)-expressing plasmid using Lipofectamine 2000 (Invitrogen) for DNA delivery as described by manufacturer. Before the experiment cells were starved in serum-free DMEM containing 15 mM HEPES, pH 7.2 and 1% DMSO for 4 h and stimulated with BT13 or neurotrophic factors. Then cells were washed once with ice-cold PBS containing 1 mM Na3VO4 and 1 mM NaF and lysed on ice in 1 ml per well of RIPA-modified buffer (50 mM Tris-HCl, pH 7.4, 150 mM NaCl, 1 mM EDTA, 1% NP-40, 1% TX-100, 10% glycerol, EDTA-free protease inhibitor cocktail (Roche), 1 mM Na3VO4, 2.5 mg/ml of sodium deoxycholate, 1 mM NaF). Plates were incubated at +4°C on the horizontal shaker for 30 min with vigorous shaking. Afterwards, 80–100 μl aliquot was taken from each well to prepare whole cell lysates. This aliquot was mixed with equal volume of 2x Laemmli loading buffer (4% SDS, 20% glycerol, 10% 2-mercaptoethanol, 0.004% bromphenol blue, 0.125 M Tris HCl, pH 6.8) and boiled for 10 min at 100°C. Remaining cell lysates were used for immunoprecipitation of RET or Trk receptors. […]

CYP1A2 = CYP1A2 (Homo sapiens, UniProt P05177); assay: CYP inhibition, fluorescent assay; type: biochemical; conditions: read-out: Inhibition of CYP isoforms (IC50), CYP1A2
[3] = Plasma stability, mouse plasma; type: in vitro ADME; conditions: read-out: Plasma stability (% remaining after 1 h)
dopamine receptor D1 = dopamine receptor D1 (Homo sapiens, UniProt P21728); assay: CEREP D1 (h) (antagonist radioligand); type: binding; conditions: BT13 1 μM; Cat. No. 0044; average of duplicate; read-out: Percentage of inhibition/potentiation from control
adenosine receptor A2B = target: T4, adenosine receptor A2B (Homo sapiens, UniProt P29275); assay: CEREP A2B (h) (antagonist radioligand); type: binding; conditions: BT13 1 μM; Cat. No. 0005; average of duplicate; read-out: Percentage of inhibition/potentiation from control
T4 construct: purchased CEREP (contract assay) Cat# 0005

[4] = tested on: adrenergic receptor alpha 1; assay: CEREP Alpha 1 (non-selective; antagonist radioligand); type: binding; conditions: BT13 1 μM; Cat. No. 0008; average of duplicate
[5] = target: T5, vasoactive intestinal peptide receptor PAC1 (PACAP) (Homo sapiens, UniProt P41586); assay: CEREP PAC1 (PACAP) (h) (agonist radioligand); type: binding; conditions: BT13 1 μM; Cat. No. 1518; average of duplicate; read-out: Percentage of inhibition/potentiation from control
T5 construct: purchased CEREP (contract assay) 1518

neurokinin receptor NK3 = neurokinin receptor NK3 (Homo sapiens, UniProt P29371); assay: CEREP NK3 (h) (antagonist radioligand); type: binding; conditions: read-out: Percentage of inhibition/potentiation from control
[6] = tested on: Akt and Erk phosphorylation (RET downstream targets); assay: Erk1/2 and Akt phosphorylation assay in MG87RET fibroblasts; type: cell-based, murine; conditions: 25–50 μM; in the presence and absence of GFRα3 co-receptor
neurokinin receptor NK2 = neurokinin receptor NK2 (Homo sapiens, UniProt P21452); assay: CEREP NK2 (h) (agonist radioligand); type: binding; conditions: read-out: Percentage of inhibition/potentiation from control
[7] = target: T6, GDNF receptor complexes (cells overexpressing GFRα1/RET) (Homo sapiens, UniProt P07949); assay: Displacement of 125I-GDNF; type: binding; conditions: BT13 50 μM; n = 5
T6 construct: full-length human RET (long isoform) in pCR3.1; expressed in transfected cells
T6 sequence (P07949 29-1114, one chain of several): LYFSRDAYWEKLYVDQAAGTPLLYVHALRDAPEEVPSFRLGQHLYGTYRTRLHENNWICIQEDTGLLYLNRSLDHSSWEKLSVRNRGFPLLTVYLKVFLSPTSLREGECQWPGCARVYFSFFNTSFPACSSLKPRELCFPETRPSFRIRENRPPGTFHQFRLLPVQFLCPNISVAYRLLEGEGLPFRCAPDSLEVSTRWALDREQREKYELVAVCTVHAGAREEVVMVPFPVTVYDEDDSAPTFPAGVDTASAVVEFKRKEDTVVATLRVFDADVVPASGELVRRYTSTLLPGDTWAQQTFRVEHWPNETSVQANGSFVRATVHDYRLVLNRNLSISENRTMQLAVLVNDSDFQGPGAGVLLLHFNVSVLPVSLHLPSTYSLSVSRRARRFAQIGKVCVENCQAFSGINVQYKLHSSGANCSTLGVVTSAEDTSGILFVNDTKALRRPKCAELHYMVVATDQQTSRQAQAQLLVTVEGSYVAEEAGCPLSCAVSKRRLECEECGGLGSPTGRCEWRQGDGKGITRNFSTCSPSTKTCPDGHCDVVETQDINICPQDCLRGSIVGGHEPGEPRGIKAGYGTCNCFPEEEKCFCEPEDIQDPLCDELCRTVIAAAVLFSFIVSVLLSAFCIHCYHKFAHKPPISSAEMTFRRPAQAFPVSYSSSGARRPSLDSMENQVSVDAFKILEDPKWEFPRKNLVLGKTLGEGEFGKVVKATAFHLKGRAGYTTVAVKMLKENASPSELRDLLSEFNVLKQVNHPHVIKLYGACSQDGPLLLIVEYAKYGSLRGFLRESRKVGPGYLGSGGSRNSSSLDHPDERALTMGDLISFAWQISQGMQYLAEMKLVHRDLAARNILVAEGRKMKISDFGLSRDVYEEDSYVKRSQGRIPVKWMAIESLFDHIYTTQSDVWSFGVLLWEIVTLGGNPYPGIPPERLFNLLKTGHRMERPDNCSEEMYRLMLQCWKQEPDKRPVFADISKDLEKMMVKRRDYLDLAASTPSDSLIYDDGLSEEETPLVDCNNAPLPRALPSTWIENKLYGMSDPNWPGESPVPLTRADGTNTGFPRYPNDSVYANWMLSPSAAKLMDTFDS

T2 sequence (P21396 whole entry): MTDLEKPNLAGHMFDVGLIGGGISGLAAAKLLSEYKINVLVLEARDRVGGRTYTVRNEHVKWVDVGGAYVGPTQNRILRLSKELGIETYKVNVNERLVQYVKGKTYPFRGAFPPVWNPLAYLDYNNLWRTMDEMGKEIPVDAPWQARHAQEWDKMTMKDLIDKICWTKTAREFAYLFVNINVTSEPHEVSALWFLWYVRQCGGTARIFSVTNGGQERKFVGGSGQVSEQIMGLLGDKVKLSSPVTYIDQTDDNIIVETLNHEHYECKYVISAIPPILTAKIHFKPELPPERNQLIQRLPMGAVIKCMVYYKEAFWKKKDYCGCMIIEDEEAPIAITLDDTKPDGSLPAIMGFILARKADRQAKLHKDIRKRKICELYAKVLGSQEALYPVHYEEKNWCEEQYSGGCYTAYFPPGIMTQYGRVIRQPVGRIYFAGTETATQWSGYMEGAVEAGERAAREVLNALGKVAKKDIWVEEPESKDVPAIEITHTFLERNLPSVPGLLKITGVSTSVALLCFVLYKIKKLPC
T1 sequence (Q12809 whole entry): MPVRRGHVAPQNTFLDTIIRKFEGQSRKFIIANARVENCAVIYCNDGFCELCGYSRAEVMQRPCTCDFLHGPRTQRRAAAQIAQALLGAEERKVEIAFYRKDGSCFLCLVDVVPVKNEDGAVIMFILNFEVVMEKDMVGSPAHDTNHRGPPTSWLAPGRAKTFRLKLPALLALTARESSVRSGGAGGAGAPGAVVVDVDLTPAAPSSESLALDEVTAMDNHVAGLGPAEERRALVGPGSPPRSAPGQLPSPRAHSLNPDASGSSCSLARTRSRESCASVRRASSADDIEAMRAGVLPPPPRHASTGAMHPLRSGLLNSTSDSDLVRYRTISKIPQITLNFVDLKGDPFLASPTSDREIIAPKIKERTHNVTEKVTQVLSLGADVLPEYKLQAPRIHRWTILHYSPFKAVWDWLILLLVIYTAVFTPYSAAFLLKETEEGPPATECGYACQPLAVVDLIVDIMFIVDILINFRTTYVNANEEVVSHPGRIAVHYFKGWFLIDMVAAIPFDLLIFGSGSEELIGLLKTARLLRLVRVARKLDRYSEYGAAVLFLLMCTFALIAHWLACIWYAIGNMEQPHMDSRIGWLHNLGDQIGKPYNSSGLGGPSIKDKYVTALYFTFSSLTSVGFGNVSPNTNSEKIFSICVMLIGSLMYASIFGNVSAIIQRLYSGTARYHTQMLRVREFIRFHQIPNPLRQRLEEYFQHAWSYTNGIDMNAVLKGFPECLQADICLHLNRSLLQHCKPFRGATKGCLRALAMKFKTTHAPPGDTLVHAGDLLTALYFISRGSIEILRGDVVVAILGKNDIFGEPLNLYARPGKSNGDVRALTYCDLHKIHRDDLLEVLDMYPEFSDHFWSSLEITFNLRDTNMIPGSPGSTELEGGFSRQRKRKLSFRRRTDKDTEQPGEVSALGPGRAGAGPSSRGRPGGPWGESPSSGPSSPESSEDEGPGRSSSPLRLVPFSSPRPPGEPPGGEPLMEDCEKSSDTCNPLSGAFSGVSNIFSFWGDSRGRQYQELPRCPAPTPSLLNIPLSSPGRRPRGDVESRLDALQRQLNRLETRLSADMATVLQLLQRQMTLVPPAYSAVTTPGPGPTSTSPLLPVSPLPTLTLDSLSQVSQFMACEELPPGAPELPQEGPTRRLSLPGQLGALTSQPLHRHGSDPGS
T3 sequence (P07949 29-1114): as the sequence (P07949 29-1114, one chain of several) above
T4 sequence (P29275 whole entry): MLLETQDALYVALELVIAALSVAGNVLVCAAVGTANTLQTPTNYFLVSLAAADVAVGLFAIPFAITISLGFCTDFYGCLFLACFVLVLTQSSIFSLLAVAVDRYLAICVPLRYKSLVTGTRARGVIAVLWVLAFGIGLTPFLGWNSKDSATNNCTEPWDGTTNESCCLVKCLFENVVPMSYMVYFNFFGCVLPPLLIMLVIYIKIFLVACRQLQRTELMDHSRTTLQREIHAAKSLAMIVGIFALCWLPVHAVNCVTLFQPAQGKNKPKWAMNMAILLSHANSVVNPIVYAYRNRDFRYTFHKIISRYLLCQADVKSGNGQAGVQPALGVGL
neurokinin receptor NK2, sequence (P21452 whole entry): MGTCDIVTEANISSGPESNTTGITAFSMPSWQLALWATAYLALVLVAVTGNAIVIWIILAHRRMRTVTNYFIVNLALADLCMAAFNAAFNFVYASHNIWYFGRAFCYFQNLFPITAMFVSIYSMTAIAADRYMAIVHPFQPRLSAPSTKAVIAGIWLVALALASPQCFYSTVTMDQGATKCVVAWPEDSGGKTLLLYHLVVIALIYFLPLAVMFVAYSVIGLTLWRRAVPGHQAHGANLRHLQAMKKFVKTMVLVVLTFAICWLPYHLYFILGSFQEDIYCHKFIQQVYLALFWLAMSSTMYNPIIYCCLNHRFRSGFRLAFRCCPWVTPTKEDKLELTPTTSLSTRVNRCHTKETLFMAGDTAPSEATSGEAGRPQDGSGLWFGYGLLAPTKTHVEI
CYP1A2, sequence (P05177 whole entry, canonical isoform): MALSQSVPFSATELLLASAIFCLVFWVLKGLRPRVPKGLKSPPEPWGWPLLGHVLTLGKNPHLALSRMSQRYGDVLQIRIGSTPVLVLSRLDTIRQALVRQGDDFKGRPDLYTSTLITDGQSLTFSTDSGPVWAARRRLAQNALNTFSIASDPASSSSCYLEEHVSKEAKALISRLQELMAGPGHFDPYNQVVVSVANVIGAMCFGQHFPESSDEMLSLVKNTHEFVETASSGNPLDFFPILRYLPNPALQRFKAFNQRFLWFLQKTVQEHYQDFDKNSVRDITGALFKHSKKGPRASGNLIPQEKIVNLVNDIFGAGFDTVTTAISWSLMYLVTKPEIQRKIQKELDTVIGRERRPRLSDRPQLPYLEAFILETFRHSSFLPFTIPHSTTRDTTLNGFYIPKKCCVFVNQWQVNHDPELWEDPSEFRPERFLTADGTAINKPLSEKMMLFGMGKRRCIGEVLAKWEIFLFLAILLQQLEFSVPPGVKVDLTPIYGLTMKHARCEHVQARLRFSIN
dopamine receptor D1, sequence (P21728 whole entry): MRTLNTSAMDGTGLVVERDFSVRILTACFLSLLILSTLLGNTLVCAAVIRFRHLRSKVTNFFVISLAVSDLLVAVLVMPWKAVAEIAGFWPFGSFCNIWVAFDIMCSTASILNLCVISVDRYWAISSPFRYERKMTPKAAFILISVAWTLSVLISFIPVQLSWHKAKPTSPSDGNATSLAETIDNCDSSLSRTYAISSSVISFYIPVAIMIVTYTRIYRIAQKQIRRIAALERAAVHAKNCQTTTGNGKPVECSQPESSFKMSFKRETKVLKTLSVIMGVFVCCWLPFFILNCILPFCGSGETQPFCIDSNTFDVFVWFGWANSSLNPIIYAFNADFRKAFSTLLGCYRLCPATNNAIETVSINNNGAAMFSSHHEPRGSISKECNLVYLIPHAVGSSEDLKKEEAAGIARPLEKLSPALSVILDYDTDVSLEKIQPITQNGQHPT
neurokinin receptor NK3, sequence (P29371 whole entry): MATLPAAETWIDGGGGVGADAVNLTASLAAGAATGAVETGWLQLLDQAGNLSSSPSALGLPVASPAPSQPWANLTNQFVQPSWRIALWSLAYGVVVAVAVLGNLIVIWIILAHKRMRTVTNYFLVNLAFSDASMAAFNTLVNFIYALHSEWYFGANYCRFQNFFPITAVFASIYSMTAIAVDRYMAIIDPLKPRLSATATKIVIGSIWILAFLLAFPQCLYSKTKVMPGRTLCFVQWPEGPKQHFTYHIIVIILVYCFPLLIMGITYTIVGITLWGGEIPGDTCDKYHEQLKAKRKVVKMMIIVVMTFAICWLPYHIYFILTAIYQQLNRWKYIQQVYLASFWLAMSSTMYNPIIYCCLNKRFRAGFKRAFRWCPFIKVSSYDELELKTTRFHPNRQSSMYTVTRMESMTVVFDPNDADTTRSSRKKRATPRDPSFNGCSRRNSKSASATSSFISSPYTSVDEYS

## CCN(CC)S(=O)(=O)c1ccc(OC)c(N2CCN(C(=O)c3ccc(F)cc3C(F)(F)F)CC2)c1 [BT13]
[1]
  Ki: > 30 µM
[2]
  inhibition at 1 µM: 5%
Dopamine transporter
  inhibition at 1 µM: 6%
RET
  RET phosphorylation (170 kD mature glycosylated form), Western blotting: elicited phosphorylation
TrkA
  TrkA phosphorylation, Western blotting: did not produce any detectable increase
CYP1A2
  IC50: > 100 µM
[3]
  remaining at 1 h: 110 ± 3.1%
Dopamine receptor D1
  inhibition at 1 µM: -17%
Adenosine receptor A2B
  inhibition at 1 µM: -14%
[4]
  Percentage of inhibition/potentiation from control: 2%
[5]
  inhibition at 1 µM: 14%
Neurokinin receptor NK3
  inhibition at 1 µM: 0%
[6]
  phosphorylation of RET downstream targets Akt and Erk: elicited phosphorylation
Neurokinin receptor NK2
  inhibition at 1 µM: 5%
[7]
  reduction of 125I-GDNF binding: 25 ± 10.2%
